Read-outs that look alike come from different tables or passages of the source.
How the values were obtained:
[1] = tested on: Proteus mirabilis 29906 (Pm) lysate; test: Inhibition of formation of TMA from choline in Proteus mirabilis lysate (EXAMPLE 2); assay type: biochemical; conditions: Proteus mirabilis 29906 lysate, d9-choline chloride substrate, 37° C. for two hours; read-out: TMA Inhibition (IC50, mol/L)
[2] = tested on: human fecal polymicrobial community; test: Human fecal polymicrobial incubation with d9-choline, TMA inhibition (EXAMPLE 3); assay type: cell-based; conditions: human fecal slurry 0.2% (w/v), 50 μM d9-choline chloride, 20 hours at 37° C., anaerobic; read-out: TMA Inhibition (IC50, mol/L)
Protocol: Human fecal polymicrobial incubation with deuterium labeled choline compound screening method, including cell viability assay. All materials were pre-reduced in an anaerobic chamber for 24 hours before using in the experiments and experimental procedures were performed under anaerobic conditions (chamber purged with 85% nitrogen, 5% hydrogen, 10% carbon dioxide).
Human fecal samples were collected from a healthy volunteer with no chronic illnesses, blood borne diseases or active infections. The volunteer had not received antibiotics within two months prior to donation and provided written informed consent. Samples were diluted to make a 20% (w/v) fecal slurry by resuspension of the feces in a media containing 3% (w/v) tryptic soy broth, 1% (w/v) trehalose, pH 7.3. The fecal slurry was homogenized and filtered by hand using a stomacher bag with an integrated 170 μm membrane. DMSO (5% (w/v)) was added to the filtered slurry and aliquots were stored in cryogenic vials at −80° C. until use. Frozen fecal slurries were diluted to 0.2% (w/v) with M9 media (Na2HPO4 (6 g/L), KH2PO4 (3 g/L), NaCl (0.5 g/L) with addition of 0.1 mM CaCl2 and 1 mM MgSO4) and dispensed (1 mL) into deep well 96-well plates. Diluted fecal slurries containing 50 μM d9-choline chloride and compounds in doses ranging from 500 μM to 3.81 nM were sealed and incubated at 37° C. with shaking. After 20 hours, an aliquot of the fecal polymicrobial community was analyzed for viability using PrestoBlue cell viability reagent (Thermo Fisher Scientific, USA) as described below. The reaction plates were subsequently centrifuged (4000×g at 4° C. for 12 min) to pellet fecal material and 150 μl aliquots were transferred and quenched with addition of formic acid to 1% (v/v). All fecal processing and polymicrobial assay steps were performed in an anaerobic environment. The products were determined by LC/MS/MS and IC50 values were calculated as described previously for detection and analysis of TMA and d9-TMA in EXAMPLE 2.

[3] = tested on: whole cell wild-type P. mirabilis; test: Inhibition of conversion of choline to TMA by whole cell wild-type P. mirabilis (EXAMPLE 5); assay type: cell-based; conditions: Proteus mirabilis, read-out: EC50 (mol/L) whole cell wild-type P. mirabilis
Protocol: (§1) Ability of compounds to inhibit the conversion of choline to TMA in cell lysates or whole cells were determined using methods as described in Wang, Z, Roberts, A B, Buffa J A, et al. (2015) Non-lethal inhibition of gut microbial trimethylamine production for the treatment of atherosclerosis, Cell 163: 1585-1595. Briefly, efficacy was measured as IC50 (nM) by inhibition of conversion of choline to TMA metabolized by recombinant P. mirabilis Cut C/D lysate; recombinant D. alaskensis Cut C/D lysate, or whole cell wild-type P. mirabilis.

plasma TMAO = test: Preclinical screening method, plasma TMAO in mice on 1% choline diet (EXAMPLE 4); assay type: in vivo, mice (C57bl/6); conditions: 1% Choline Added diet, oral gavage 310 mg/kg/day, 3 days, blood 20 hours post gavage
Protocol: Starting at day 0, mice (C57bl/6, ˜19 g, 10 wk of age; n=5/group) were maintained in accordance with the NIH guidelines in a 12:12 hr light:dark cycle and provided with 1% Choline Added diet (Envigo custom formulation prepared, similar to Teklad Global Rodent Diet 2018) ad libitum. Concurrent with introduction of the diet, mice were gavaged once daily orally using a 1.5″ 22G ball-tip curved feeding needle to administer compound in 200 μl or less of water at one or multiple of the dose 0, 1.0, 3.1, 10, 31, 100 or 310 mg/kg/day. Urine was collected once daily in the morning. Animals were restrained by hand and bladder was expressed by gentle palpation of the pelvic region. […]
For measurement of TMA in plasma, samples were acidified (10 mM HCl final) prior to storage at −80° C. TMAO and TMA and their d9-isotopologues were quantified using stable isotope dilution HPLC with on-line electrospray ionization tandem mass spectrometry ([…]) methods as described in (Wang Z, Klipfell E, Bennett B J, et al. (2011) Gut flora metabolism of phosphatidylcholine promotes cardiovascular disease. Nature 472:57-63) using d4(1,1,2,2)-choline, d3(methyl)-TMAO, and d3(methyl)-TMA as internal standards. […]

[4] = molecular target: recombinant P. mirabilis Cut C/D lysate (Proteus mirabilis, UniProt B4EYG1); test: Inhibition of conversion of choline to TMA by recombinant P. mirabilis Cut C/D lysate (EXAMPLE 5); assay type: biochemical
recombinant P. mirabilis Cut C/D lysate, sequence (B4EYG1 entry or part of it): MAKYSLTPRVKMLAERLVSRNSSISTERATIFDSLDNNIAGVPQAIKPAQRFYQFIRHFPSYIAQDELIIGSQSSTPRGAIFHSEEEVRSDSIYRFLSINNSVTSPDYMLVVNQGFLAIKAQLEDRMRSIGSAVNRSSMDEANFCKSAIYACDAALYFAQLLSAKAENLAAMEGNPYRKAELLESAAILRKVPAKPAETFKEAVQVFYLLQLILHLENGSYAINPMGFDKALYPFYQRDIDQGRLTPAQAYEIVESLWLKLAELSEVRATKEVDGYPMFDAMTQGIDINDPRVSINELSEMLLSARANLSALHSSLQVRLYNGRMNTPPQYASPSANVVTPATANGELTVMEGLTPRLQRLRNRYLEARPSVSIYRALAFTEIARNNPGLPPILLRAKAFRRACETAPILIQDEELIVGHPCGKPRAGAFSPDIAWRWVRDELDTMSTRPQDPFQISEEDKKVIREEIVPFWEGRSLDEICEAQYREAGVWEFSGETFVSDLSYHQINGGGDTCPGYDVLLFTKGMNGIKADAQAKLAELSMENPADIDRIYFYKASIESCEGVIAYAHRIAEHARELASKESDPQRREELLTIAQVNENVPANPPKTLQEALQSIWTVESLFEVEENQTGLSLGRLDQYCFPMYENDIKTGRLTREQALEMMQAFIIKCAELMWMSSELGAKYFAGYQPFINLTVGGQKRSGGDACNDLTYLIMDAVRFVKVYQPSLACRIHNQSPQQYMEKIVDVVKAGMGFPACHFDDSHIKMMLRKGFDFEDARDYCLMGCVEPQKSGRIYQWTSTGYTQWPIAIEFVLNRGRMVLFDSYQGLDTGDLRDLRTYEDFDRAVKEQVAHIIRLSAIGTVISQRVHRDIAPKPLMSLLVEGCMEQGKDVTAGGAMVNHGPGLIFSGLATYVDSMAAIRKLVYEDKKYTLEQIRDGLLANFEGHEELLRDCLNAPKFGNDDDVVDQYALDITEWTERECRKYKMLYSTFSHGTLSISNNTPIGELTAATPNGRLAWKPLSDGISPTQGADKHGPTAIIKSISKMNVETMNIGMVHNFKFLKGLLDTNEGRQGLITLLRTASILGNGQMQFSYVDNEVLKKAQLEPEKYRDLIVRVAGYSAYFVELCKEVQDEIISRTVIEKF
recombinant P. mirabilis Cut C/D lysate, sequence (B4EYG0 entry or part of it, further chain): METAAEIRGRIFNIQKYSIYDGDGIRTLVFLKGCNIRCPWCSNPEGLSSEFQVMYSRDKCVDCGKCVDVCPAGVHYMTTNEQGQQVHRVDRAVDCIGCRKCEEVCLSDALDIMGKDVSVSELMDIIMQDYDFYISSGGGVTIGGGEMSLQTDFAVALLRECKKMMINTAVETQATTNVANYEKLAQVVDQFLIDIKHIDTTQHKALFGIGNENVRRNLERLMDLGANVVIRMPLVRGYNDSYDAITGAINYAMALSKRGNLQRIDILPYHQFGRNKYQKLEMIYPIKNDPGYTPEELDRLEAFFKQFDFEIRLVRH
Protocol: as §1

[5] = molecular target: T1, recombinant D. alaskensis Cut C/D lysate (Oleidesulfovibrio alaskensis, UniProt Q30W70); test: Inhibition of conversion of choline to TMA by recombinant D. alaskensis Cut C/D lysate (EXAMPLE 5); assay type: biochemical
T1 construct: made in house
T1 sequence (Q30W70 whole entry): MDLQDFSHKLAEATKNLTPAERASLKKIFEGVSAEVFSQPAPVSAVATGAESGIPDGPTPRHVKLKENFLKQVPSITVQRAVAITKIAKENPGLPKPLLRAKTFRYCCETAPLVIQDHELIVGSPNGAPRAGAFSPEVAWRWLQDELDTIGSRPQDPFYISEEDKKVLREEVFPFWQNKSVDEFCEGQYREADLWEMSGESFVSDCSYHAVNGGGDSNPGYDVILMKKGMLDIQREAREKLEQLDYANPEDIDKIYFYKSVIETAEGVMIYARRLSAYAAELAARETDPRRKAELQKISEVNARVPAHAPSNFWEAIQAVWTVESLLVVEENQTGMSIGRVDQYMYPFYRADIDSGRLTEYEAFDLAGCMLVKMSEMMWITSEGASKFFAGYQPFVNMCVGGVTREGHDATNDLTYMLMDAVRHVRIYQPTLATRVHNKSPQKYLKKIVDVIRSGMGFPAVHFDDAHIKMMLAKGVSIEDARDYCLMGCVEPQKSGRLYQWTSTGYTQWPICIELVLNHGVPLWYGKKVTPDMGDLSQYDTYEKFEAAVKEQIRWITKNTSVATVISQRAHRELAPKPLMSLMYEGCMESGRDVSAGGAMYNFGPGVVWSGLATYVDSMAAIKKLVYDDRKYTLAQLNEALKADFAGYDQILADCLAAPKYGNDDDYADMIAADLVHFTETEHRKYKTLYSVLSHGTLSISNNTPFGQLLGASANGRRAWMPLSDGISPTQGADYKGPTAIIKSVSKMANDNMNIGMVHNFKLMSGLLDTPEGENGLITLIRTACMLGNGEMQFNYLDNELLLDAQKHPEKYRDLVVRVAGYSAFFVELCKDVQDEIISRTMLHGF
Protocol: as §1

[6] = tested on: conversion of choline to TMA; test: Rapid preclinical method, d9-choline challenge in mice (EXAMPLE 6); assay type: in vivo; conditions: oral gavage with 2 mg d9-Choline, plasma at 3 hr
Protocol: Challenge: C57bl/6 female mice (8 wk of age ˜20 g BW) were maintained in accordance with the NIH guidelines in a 12:12 hr light:dark cycle on normal chow diet were placed in a clean cage without food ˜1 hr prior to gavage. […] Food was returned after a 2 hr fast (1 hr after gavage administration). Blood (30 μL) was collected into a heparinized capillary tube 2, 3 and 4 hours after gavage. Blood was kept at 4° C., then spun using a centrifuge (5 min in centrifuge designed to capillary tubes) to separate plasma and hematocrit within 4 hours after collection. Plasma samples were stored at −80° C. Concentration of d9 Choline, d9TMA and d9TMAO was measured by LC-MS/MS.
Flora Normalization: Twenty four hours post-gavage mice were placed in a clean cage and fecal material from conventional mice was spread in all the cages.

Structure (SMILES)	IC50 [1] [µM]	IC50 [2] [µM]	also measured
C#CC[N+]1(C2CC2)CCOCC1 [compound 10, 4-cyclopropyl-4-(prop-2-yn-1-yl)morpholin-4-ium]	1.28	–	–
C=C(C[N+](C)(C)C1CC1)C(=O)OC [compound 5, N-(2-(methoxycarbonyl)allyl)-N,N-dimethylcyclopropanaminium]	50.4	166	–
C[N+](C)(CCO)C1CC1 [ID 1, Cyclopropane-dimethyl-ethanolamine iodide]	–	–	EC50 [3]: 0.0481 µM; Remaining plasma TMAO as a percentage of plasma TMAO in same day vehicle control (% of control remaining) (plasma TMAO): 5%; IC50 [4]: 0.0062 µM; IC50 [5]: 0.087 µM; Calculated EC50 (mg/kg) compared to Vehicle Control [6]: 0.75 mg/kg
COC(=O)C(=O)C[N+](C)(C)C1CC1 [compound 6, N-(3-methoxy-2,3-dioxopropyl)-N,N-dimethylcyclopropanaminium]	4.65	–	–
CCOC(=O)CCCCC[N+](C)(C)C1CC1 [compound 9, N-(6-ethoxy-6-oxohexyl)-N,N-dimethylcyclopropanaminium]	945	–	–
C[N+](C)(CCO)C1CC1 [compound 1]	0.000251	135	–
C[N+](C)(CC(N)=O)C1CC1 [compound 8, N-(2-amino-2-oxoethyl)-N,N-dimethylcyclopropanaminium]	202	–	–
C#CC[N+](C)(C)C1CC1 [ID 3, N,N-dimethyl-N-(prop-2-yn-1-yl)cyclopropanaminium bromide]	–	–	EC50 ([3]; inhibition of conversion of choline to TMA): 0.038 µM; Remaining plasma TMAO as a percentage of plasma TMAO in same day vehicle control (% of control remaining) (plasma TMAO): 23%; IC50 [4]: 0.15 µM; IC50 [5]: 0.11 µM; Calculated EC50 (mg/kg) compared to Vehicle Control [6]: 0.04 mg/kg
C[N+](C)(CF)C1CC1 [N-(fluoromethyl)-N,N-dimethylcyclopropanaminium iodide]	60	–	IC50 [4]: 21 µM; IC50 [5]: 45 µM
C#CC[N+](C)(C)C1CC1 [compound 3, N,N-dimethyl-N-(prop-2-yn-1-yl)cyclopropanaminium]	0.0331	0.428	–
COC(=O)C[N+](C)(C)C1CC1 [compound 4, N-(2-methoxy-2-oxoethyl)-N,N-dimethylcyclopropanaminium]	89.2	134	–
C=CC[N+](C)(C)C1CC1 [compound 2, N-allyl-N,N-dimethylcyclopropanaminium]	0.00398	53.2	–

From US10675256B2, “Methods for inhibiting conversion of choline to trimethylamine (TMA)” (The Procter & Gamble Company, priority 2017, dated 2020)
